From PubChem BioAssay (NCI) come the findings set out here.

Test systems include HOP-92 NSCLC; HT29 colon; OVCAR-3 ovarian; SF-268 CNS; SK-MEL-28 melanoma; SK-MEL-5 melanoma; SN12C renal; NCI-H522 lung.
Test in all cases: inhibition of tumour cell growth, NCI panel, 48 h

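Five compound concentrations were applied to cells in 96-well plates for 48 hours; endpoints were derived by simple linear interpolation of the resulting dose-response curve. At the TGI there is no net growth.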 Bounds are passed on as bounds.

As for `O=C(N/N=C(/c1nc2ccc(Cl)cc2[nH]c1=O)C(O)c1ccc(Cl)cc1Cl)c1ccncc1` (stereo not drawn), the TGI in the test on HOP-92 NSCLC, in the test on HT29 colon, in the test with OVCAR-3 ovarian, with SF-268 CNS, in the test with SK-MEL-28 melanoma and with SK-MEL-5 melanoma was over 100 µM each time.

For the compound `CC1=NNC(=NCCN(C)C)C/C1=C/c1ccccc1Cl`, the TGI in the test on HT29 colon, in the test with OVCAR-3 ovarian, in the test on SF-268 CNS, in the test with SK-MEL-28 melanoma, in the test with SK-MEL-5 melanoma and with SN12C renal was over 100 µM in each case.

In the case of `COc1ccc2cccc(C(=O)c3ccc(C)c4c3CCC4)c2c1`, the TGI is over 100 µM in the test on HT29 colon; 64.1 µM in the test with NCI-H522 lung; over 100 µM with OVCAR-3 ovarian; over 100 µM with SF-268 CNS; over 100 µM in the test with SK-MEL-28 melanoma; 36.8 µM in the test with SK-MEL-5 melanoma. The same compound registered a TGI with SN12C renal of over 100 µM.

For `CC(C)(C)N=C1CC(C)(C)c2ccccc2C(=Nc2ccccc2)S1`, the TGI in the test with HT29 colon was over 100 µM; with NCI-H522 lung it was 46.7 µM; in the test with OVCAR-3 ovarian it was over 100 µM; with SF-268 CNS it was over 100 µM; in the test on SK-MEL-28 melanoma, over 100 µM; with SK-MEL-5 melanoma, 59.2 µM. In the test with SN12C renal, this compound displayed a TGI of over 100 µM.

On to `Cc1nc(C)c(C(=O)Nc2cccc3c2C(=O)NC3=O)cc1C(=O)Nc1cccc2c1C(=O)NC2=O`, for which the TGI in the test with HOP-92 NSCLC, in the test on HT29 colon, with NCI-H522 lung, in the test with OVCAR-3 ovarian, in the test with SF-268 CNS and in the test on SK-MEL-28 melanoma was over 100 µM in each case. Also, the TGI in the test with SK-MEL-5 melanoma and in the test on SN12C renal was over 100 µM in each case.

Turning to `CN1CCn2c(Br)ccc2C1=O`, the TGI with HT29 colon, with NCI-H522 lung, in the test with OVCAR-3 ovarian, in the test with SF-268 CNS, with SK-MEL-28 melanoma and in the test on SN12C renal was over 100 µM each time.

For `CC#C[C@@]1(O)CCCC[C@@H]1O`, the TGI in the test with HOP-92 NSCLC, in the test on HT29 colon, in the test on NCI-H522 lung, in the test with OVCAR-3 ovarian, in the test on SF-268 CNS and in the test with SK-MEL-28 melanoma was over 100 µM in each case. In addition, the TGI in the test with SK-MEL-5 melanoma and in the test on SN12C renal was over 100 µM throughout.

Regarding `CCCCc1c2c(nc3c1CCc1cc4c(nc1-3)-c1nc3c(c(CCCC)c1CC4)CCC/C3=C\c1ccccc1)/C(=C/c1ccccc1)CCC2`, the TGI in the test on HOP-92 NSCLC, in the test with HT29 colon, in the test with NCI-H522 lung, with OVCAR-3 ovarian, with SF-268 CNS and in the test with SK-MEL-28 melanoma was over 100 µM each time. The TGI with SK-MEL-5 melanoma and in the test with SN12C renal was over 100 µM each time.

In the case of `CCC1C(C)c2c([nH]c3ccccc23)C2C(=O)N(c3ccccc3)C(=O)C21` (stereo not drawn), the TGI in the test on HT29 colon stood at 28.2 µM; with OVCAR-3 ovarian, 27.1 µM; in the test with SF-268 CNS, 62.5 µM; with SK-MEL-28 melanoma, 33.4 µM; with SK-MEL-5 melanoma, 28.8 µM; in the test on SN12C renal, 26.3 µM.

`c1ccc2c(CNCCCCCCNCc3cccc4ccccc34)cccc2c1`: the TGI amounted to 20.5 µM with HOP-92 NSCLC; 5.04 µM in the test on HT29 colon; 9.78 µM in the test on NCI-H522 lung; 30.6 µM with OVCAR-3 ovarian; 25.7 µM with SF-268 CNS; 3.29 µM in the test on SK-MEL-28 melanoma. Also, the TGI with SK-MEL-5 melanoma stood at 19.9 µM; in the test on SN12C renal it was 25.3 µM.

In the case of `CC(C)[C@@H]1C=C(c2ccccc2)c2ccccc2C1C(C#N)(C#N)C(C)C` (stereo partly drawn), the TGI in the test with HOP-92 NSCLC, in the test with HT29 colon, in the test with OVCAR-3 ovarian, in the test with SF-268 CNS, in the test with SK-MEL-28 melanoma and in the test on SK-MEL-5 melanoma was over 100 µM each time. The same compound displayed a TGI in the test on SN12C renal of over 100 µM.

Turning to `CCCCCCCCCCCC(=O)OCC1OC(n2cc(F)c(=O)[nH]c2=O)C(NC(=O)OCc2ccccc2)C(O)C1O` (stereo not drawn), the TGI in the test with HOP-92 NSCLC was 40.7 µM; in the test with HT29 colon, 29.8 µM; in the test on NCI-H522 lung it was 30.8 µM; in the test with OVCAR-3 ovarian, 68.4 µM; with SF-268 CNS, over 100 µM; with SK-MEL-28 melanoma it was 35.4 µM. In addition, the TGI in the test with SK-MEL-5 melanoma was 34.6 µM; in the test with SN12C renal it was 34.7 µM.

For the compound `N#Cc1cccc(NC(=O)c2ccc(C(=O)O)c(C(=O)c3ccc(C(=O)O)c(C(=O)Nc4cccc(C#N)c4)c3)c2)c1`, the TGI in the test on HOP-92 NSCLC, in the test on HT29 colon, in the test on NCI-H522 lung, in the test with OVCAR-3 ovarian, in the test on SF-268 CNS and in the test on SK-MEL-5 melanoma was over 100 µM each time. This compound came in with a TGI in the test with SN12C renal of over 100 µM.

Take `N/C(=N\NS(=O)(=O)c1ccccc1)Oc1ccc(Cl)cc1`: the TGI in the test on HOP-92 NSCLC, in the test with HT29 colon, in the test with NCI-H522 lung, in the test on OVCAR-3 ovarian, in the test with SF-268 CNS and in the test with SK-MEL-28 melanoma was over 100 µM each time. The TGI with SK-MEL-5 melanoma and with SN12C renal was over 100 µM in each case.

With `COc1cc([C@@H]2c3cc4c(cc3[C@@H](NC(=O)c3ccc(N)cc3)C3COC(=O)[C@@H]32)OCO4)cc(OC)c1O` (stereo partly drawn), the TGI in the test on HOP-92 NSCLC was over 100 µM; in the test with HT29 colon, 19.4 µM; in the test on NCI-H522 lung it was 9.23 µM; in the test on OVCAR-3 ovarian it was 30.4 µM; in the test on SF-268 CNS it was over 100 µM; in the test on SK-MEL-28 melanoma, 50.8 µM. Besides, the TGI stood at 21.6 µM in the test on SK-MEL-5 melanoma and 4.54 µM in the test with SN12C renal.

Turning to `COC(=O)C1=C(OC)c2cc3c(cc2C(c2cc(OC)c(OC)c(OC)c2)C1C(=O)OC)OCO3` (stereo not drawn), the TGI in the test on HOP-92 NSCLC, in the test on HT29 colon, with OVCAR-3 ovarian, in the test with SF-268 CNS, in the test with SK-MEL-28 melanoma and in the test with SK-MEL-5 melanoma was over 100 µM in each case. This compound came in with a TGI with SN12C renal of over 100 µM.

Consider `Cn1cnc([N+](=O)[O-])c1Sc1ccccn1`, for which the TGI in the test on HOP-92 NSCLC, in the test on HT29 colon, in the test on NCI-H522 lung, with OVCAR-3 ovarian, in the test with SF-268 CNS and with SK-MEL-28 melanoma was over 100 µM throughout. For the same compound, the TGI in the test on SK-MEL-5 melanoma and in the test with SN12C renal was over 100 µM throughout.
